Results from PubChem BioAssay AID256 (DTP/NCI, 2004).
Several values for one entry are separate records, joined by “and”; a condition that tells them apart may be missing. Identical values can stand only once. Inconclusive results and toxic doses are left out.

Test system: CD2F1 mice, L1210 leukemia ip, survival T/C
Test: NCI In Vivo Anticancer Drug Screen. Data for tumor model L1210 Leukemia (intraperitoneal) in CD2F1 (CDF1) mice
Settings: higher = longer survival
Outline: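 Read-out first: treated-group measurement over vehicle-control measurement, expressed as a ratio. Animals bore a transplanted tumor line and were dosed with compound or vehicle.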

[1] = endpoint: mean survival time, dose: 100.0 mg/kg/injection, schedule: Q04DX002 (ip), vehicle: saline with Tween-80
[2] = endpoint: mean survival time, dose: 200.0 mg/kg/injection, schedule: Q04DX002 (ip), vehicle: saline with Tween-80

## Nc1ncnc2c1ncn2C1OC(CCC(=O)NCCc2c[nH]c3ccccc23)C(O)C1O (configuration not stated)
endpoint: median survival time, dose: 10.63 mg/kg/injection, schedule: Q01DX005 (ip), vehicle: distilled water + Tween-80
  T/C: 101 % of control
endpoint: median survival time, dose: 21.25 mg/kg/injection, schedule: Q01DX005 (ip), vehicle: distilled water + Tween-80
  T/C: 102 % of control
endpoint: median survival time, dose: 42.5 mg/kg/injection, schedule: Q01DX005 (ip), vehicle: distilled water + Tween-80
  T/C: 97 % of control
endpoint: median survival time, dose: 85.0 mg/kg/injection, schedule: Q01DX005 (ip), vehicle: distilled water + Tween-80
  T/C: 96 % of control
endpoint: median survival time, dose: 170.0 mg/kg/injection, schedule: Q01DX005 (ip), vehicle: distilled water + Tween-80
  T/C: 101 % of control

## O=C(O)c1ccc(C(=O)O)c(C(=O)O)c1.[NH-]C1CCCCC1[NH-].[Pt+2]
endpoint: mean survival time, dose: 0.39 mg/kg/injection, schedule: Q01DX009 (ip), vehicle: sodium bicarbonate
  T/C: 123 % of control
endpoint: mean survival time, dose: 0.39 mg/kg/injection, schedule: Q04DX003 (ip), vehicle: other
  T/C: 115 % of control
endpoint: mean survival time, dose: 0.78 mg/kg/injection, schedule: Q01DX009 (ip), vehicle: sodium bicarbonate
  T/C: 174 % of control and 200 % of control
endpoint: mean survival time, dose: 0.78 mg/kg/injection, schedule: Q04DX003 (ip), vehicle: other
  T/C: 120 % of control
endpoint: mean survival time, dose: 0.78 mg/kg/injection, schedule: Q04DX003 (ip), vehicle: sodium bicarbonate
  T/C: 119 % of control
endpoint: mean survival time, dose: 1.56 mg/kg/injection, schedule: Q01DX009 (ip), vehicle: sodium bicarbonate
  T/C: 172 % of control and 325 % of control
endpoint: mean survival time, dose: 1.56 mg/kg/injection, schedule: Q04DX003 (ip), vehicle: sodium bicarbonate
  T/C: 119 % of control
endpoint: mean survival time, dose: 3.12 mg/kg/injection, schedule: Q01DX009 (ip), vehicle: sodium bicarbonate
  T/C: 155 % of control and 196 % of control and 251 % of control
endpoint: mean survival time, dose: 3.13 mg/kg/injection, schedule: Q04DX003 (ip), vehicle: other
  T/C: 183 % of control
endpoint: mean survival time, dose: 6.25 mg/kg/injection, schedule: Q01DX009 (ip), vehicle: sodium bicarbonate
  T/C: 190 % of control
endpoint: mean survival time, dose: 6.25 mg/kg/injection, schedule: Q04DX003 (ip), vehicle: other
  T/C: 240 % of control and 263 % of control
endpoint: mean survival time, dose: 6.25 mg/kg/injection, schedule: Q04DX003 (ip), vehicle: sodium bicarbonate
  T/C: 158 % of control
endpoint: mean survival time, dose: 8.0 mg/kg/injection, schedule: Q01DX005 (oral), vehicle: sodium bicarbonate
  T/C: 113 % of control and 120 % of control and 101 % of control
endpoint: mean survival time, dose: 12.5 mg/kg/injection, schedule: Q01DX009 (ip), vehicle: sodium bicarbonate
  T/C: 227 % of control and 97 % of control
endpoint: mean survival time, dose: 12.5 mg/kg/injection, schedule: Q04DX003 (ip), vehicle: other
  T/C: 273 % of control and 291 % of control
endpoint: mean survival time, dose: 12.5 mg/kg/injection, schedule: Q04DX003 (ip), vehicle: sodium bicarbonate
  T/C: 247 % of control
endpoint: mean survival time, dose: 16.0 mg/kg/injection, schedule: Q01DX005 (oral), vehicle: sodium bicarbonate
  T/C: 100 % of control and 105 % of control
endpoint: mean survival time, dose: 25.0 mg/kg/injection, schedule: Q04DX003 (ip), vehicle: other
  T/C: 328 % of control and 444 % of control
endpoint: mean survival time, dose: 25.0 mg/kg/injection, schedule: Q04DX003 (ip), vehicle: sodium bicarbonate
  T/C: 186 % of control
endpoint: mean survival time, dose: 32.0 mg/kg/injection, schedule: Q01DX005 (oral), vehicle: sodium bicarbonate
  T/C: 108 % of control
endpoint: mean survival time, dose: 64.0 mg/kg/injection, schedule: Q01DX005 (oral), vehicle: sodium bicarbonate
  T/C: 108 % of control
endpoint: mean survival time, dose: 128.0 mg/kg/injection, schedule: Q01DX005 (oral), vehicle: sodium bicarbonate
  T/C: 113 % of control and 103 % of control
endpoint: mean survival time, dose: 256.0 mg/kg/injection, schedule: Q01DX005 (oral), vehicle: sodium bicarbonate
  T/C: 116 % of control and 121 % of control and 111 % of control
endpoint: median survival time, dose: 0.58 mg/kg/injection, schedule: Q01DX009 (ip), vehicle: sodium bicarbonate
  T/C: 156 % of control
endpoint: median survival time, dose: 0.87 mg/kg/injection, schedule: Q01DX009 (ip), vehicle: water
  T/C: 101 % of control and 112 % of control
endpoint: median survival time, dose: 1.2 mg/kg/injection, schedule: Q01DX009 (ip), vehicle: sodium bicarbonate
  T/C: 361 % of control
endpoint: median survival time, dose: 1.3 mg/kg/injection, schedule: Q01DX009 (ip), vehicle: water
  T/C: 115 % of control and 107 % of control
endpoint: median survival time, dose: 1.8 mg/kg/injection, schedule: Q01DX009 (ip), vehicle: sodium bicarbonate
  T/C: 313 % of control
endpoint: median survival time, dose: 2.0 mg/kg/injection, schedule: Q01DX009 (ip), vehicle: water
  T/C: 122 % of control and 101 % of control
endpoint: median survival time, dose: 2.7 mg/kg/injection, schedule: Q01DX009 (ip), vehicle: sodium bicarbonate
  T/C: 240 % of control
endpoint: median survival time, dose: 3.0 mg/kg/injection, schedule: Q01DX009 (ip), vehicle: sodium bicarbonate
  T/C: 357 % of control
endpoint: median survival time, dose: 3.13 mg/kg/injection, schedule: Q04DX003 (ip), vehicle: other
  T/C: 154 % of control and 280 % of control
endpoint: median survival time, dose: 3.13 mg/kg/injection, schedule: Q04DX003 (ip), vehicle: sodium bicarbonate
  T/C: 174 % of control
endpoint: median survival time, dose: 3.5 mg/kg/injection, schedule: Q01DX009 (ip), vehicle: water
  T/C: 107 % of control
endpoint: median survival time, dose: 4.0 mg/kg/injection, schedule: Q01DX009 (ip), vehicle: sodium bicarbonate
  T/C: 166 % of control
endpoint: median survival time, dose: 4.5 mg/kg/injection, schedule: Q01DX009 (ip), vehicle: sodium bicarbonate
  T/C: 237 % of control
endpoint: median survival time, dose: 5.0 mg/kg/injection, schedule: Q04DX003 (ip), vehicle: sodium bicarbonate
  T/C: 176 % of control and 186 % of control and 195 % of control
endpoint: median survival time, dose: 5.24 mg/kg/injection, schedule: Q04DX003 (ip), vehicle: sodium bicarbonate
  T/C: 158 % of control
endpoint: median survival time, dose: 5.3 mg/kg/injection, schedule: Q01DX009 (ip), vehicle: sodium bicarbonate
  T/C: 182 % of control
endpoint: median survival time, dose: 6.25 mg/kg/injection, schedule: Q04DX003 (ip), vehicle: other
  T/C: 202 % of control and 313 % of control
endpoint: median survival time, dose: 6.25 mg/kg/injection, schedule: Q04DX003 (ip), vehicle: saline
  T/C: 265 % of control
endpoint: median survival time, dose: 6.25 mg/kg/injection, schedule: Q04DX003 (ip), vehicle: sodium bicarbonate
  T/C: 154 % of control and 348 % of control
endpoint: median survival time, dose: 7.78 mg/kg/injection, schedule: Q04DX003 (ip), vehicle: sodium bicarbonate
  T/C: 198 % of control
endpoint: median survival time, dose: 8.0 mg/kg/injection, schedule: Q01DX009 (ip), vehicle: water
  T/C: 180 % of control
endpoint: median survival time, dose: 8.3 mg/kg/injection, schedule: Q01DX009 (ip), vehicle: water
  T/C: 277 % of control and 108 % of control
endpoint: median survival time, dose: 10.0 mg/kg/injection, schedule: Q04DX003 (ip), vehicle: sodium bicarbonate
  T/C: 231 % of control and 247 % of control and 430 % of control
endpoint: median survival time, dose: 11.81 mg/kg/injection, schedule: Q04DX003 (ip), vehicle: sodium bicarbonate
  T/C: 295 % of control
endpoint: median survival time, dose: 12.0 mg/kg/injection, schedule: Q01DX009 (ip), vehicle: water
  T/C: 298 % of control
endpoint: median survival time, dose: 12.5 mg/kg/injection, schedule: Q04DX003 (ip), vehicle: other
  T/C: 202 % of control
endpoint: median survival time, dose: 12.5 mg/kg/injection, schedule: Q04DX003 (ip), vehicle: saline
  T/C: 361 % of control
endpoint: median survival time, dose: 12.5 mg/kg/injection, schedule: Q04DX003 (ip), vehicle: sodium bicarbonate
  T/C: 309 % of control and 348 % of control
endpoint: median survival time, dose: 13.0 mg/kg/injection, schedule: Q04DX003 (ip), vehicle: sodium bicarbonate
  T/C: 231 % of control
endpoint: median survival time, dose: 16.0 mg/kg/injection, schedule: Q01DX009 (ip), vehicle: water
  T/C: 240 % of control
endpoint: median survival time, dose: 17.74 mg/kg/injection, schedule: Q04DX003 (ip), vehicle: sodium bicarbonate
  T/C: 214 % of control
endpoint: median survival time, dose: 20.0 mg/kg/injection, schedule: Q01DX001 (ip), vehicle: sodium bicarbonate
  T/C: 174 % of control
endpoint: median survival time, dose: 25.0 mg/kg/injection, schedule: Q04DX003 (ip), vehicle: saline
  T/C: 361 % of control
endpoint: median survival time, dose: 25.0 mg/kg/injection, schedule: Q04DX003 (ip), vehicle: sodium bicarbonate
  T/C: 357 % of control
endpoint: median survival time, dose: 26.64 mg/kg/injection, schedule: Q04DX003 (ip), vehicle: sodium bicarbonate
  T/C: 345 % of control
endpoint: median survival time, dose: 30.0 mg/kg/injection, schedule: Q01DX001 (ip), vehicle: sodium bicarbonate
  T/C: 170 % of control and 175 % of control and 333 % of control
endpoint: median survival time, dose: 30.0 mg/kg/injection, schedule: Q04DX003 (ip), vehicle: sodium bicarbonate
  T/C: 323 % of control
endpoint: median survival time, dose: 40.0 mg/kg/injection, schedule: Q01DX001 (ip), vehicle: sodium bicarbonate
  T/C: 198 % of control and 714 % of control
endpoint: median survival time, dose: 50.0 mg/kg/injection, schedule: Q01DX001 (ip), vehicle: sodium bicarbonate
  T/C: 210 % of control
endpoint: median survival time, dose: 50.0 mg/kg/injection, schedule: Q04DX003 (ip), vehicle: sodium bicarbonate
  T/C: 345 % of control
endpoint: median survival time, dose: 64.0 mg/kg/injection, schedule: Q01DX009 (ip), vehicle: water
  T/C: 89 % of control

## CCC1NC(=O)C(NC(=O)c2ncccc2O)C(C)OC(=O)C(c2ccccc2)NC(=O)C2CC(=O)CCN2C(=O)C(Cc2ccccc2)N(C)C(=O)C2CCCN2C1=O (configuration not stated)
[1]
  T/C: 108 % of control
[2]
  T/C: 108 % of control

## CC1(C)N=C(N)N=C(N)N1c1ccc(OCCNS(=O)(=O)c2cccc(S(=O)(=O)F)c2)c(Cl)c1
endpoint: mean survival time, dose: 12.5 mg/kg/injection, schedule: Q01DX009 (ip), vehicle: saline with Tween-80
  T/C: 108 % of control
endpoint: mean survival time, dose: 25.0 mg/kg/injection, schedule: Q01DX009 (ip), vehicle: saline with Tween-80
  T/C: 110 % of control
endpoint: mean survival time, dose: 50.0 mg/kg/injection, schedule: Q01DX009 (ip), vehicle: saline with Tween-80
  T/C: 117 % of control
endpoint: mean survival time, dose: 100.0 mg/kg/injection, schedule: Q01DX001 (ip), vehicle: saline with Tween-80
  T/C: 97 % of control
endpoint: mean survival time, dose: 100.0 mg/kg/injection, schedule: Q01DX009 (ip), vehicle: saline with Tween-80
  T/C: 164 % of control
[1]
  T/C: 97 % of control
endpoint: mean survival time, dose: 200.0 mg/kg/injection, schedule: Q01DX001 (ip), vehicle: saline with Tween-80
  T/C: 107 % of control
endpoint: mean survival time, dose: 200.0 mg/kg/injection, schedule: Q01DX009 (ip), vehicle: saline with Tween-80
  T/C: 94 % of control
[2]
  T/C: 108 % of control
endpoint: mean survival time, dose: 400.0 mg/kg/injection, schedule: Q01DX001 (ip), vehicle: saline with Tween-80
  T/C: 111 % of control
endpoint: mean survival time, dose: 400.0 mg/kg/injection, schedule: Q04DX002 (ip), vehicle: saline with Tween-80
  T/C: 101 % of control
